In patent US20250275965A1, “COMPOUNDS AS CASEIN KINASE INHIBITORS” (GRITSCIENCE BIOPHARMACEUTICALS CO.,LTD., priority 2020, published 2025):

Key:
CK1δ = CK1δ (Homo sapiens, UniProt P48730); experiment: CK1δ kinase assay (Kinase-Glo); format: biochemical; conditions: 10 μM ATP, 2 nM wild type kinase, 85 min at 25° C.
Protocol: The reaction mixture was incubated for 85 min at 25° C.; detection was carried out as described for the Kinase-Glo Assay (Promega). Luminescent output was measured on the Perkin Elmer Envision plate reader (PerkinElmer, Waltham, MA).

[1] = Intrinsic clearance in liver microsomes (mouse); format: in vitro ADME; conditions: Mouse liver microsomes 0.5 mg/mL, 2 μM compound, 37° C.; for microsomal CLint at 2 μM: read-out: in vitro CLint (μL/min/mg protein); for half-life at 2 μM: read-out: in vitro t1/2
Protocol: (§1) 1. The master solution was prepared according to Table 4.
(§2) 2. Three separated experiments were performed as follows. a) With NADPH: 10 μL of 20 mg/mL liver microsomes and 40 μL of 10 mM NADPH were added to the incubations. The final concentrations of microsomes and NADPH were 0.5 mg/mL and 1 mM, respectively. b) Without NADPH: 10 μL of 20 mg/mL liver microsomes and 40 μL of ultra-pure H2O were added to the incubations. The final concentration of microsomes was 0.5 mg/mL. c) Heat-inactivated microsomes without NADPH: 10 μL of 20 mg/mL heat-inactivated liver microsomes and 40 μL of ultra-pure H2O were added to the incubations. The final concentration of microsomes was 0.5 mg/mL.
(§3) 3. The reaction was started with the addition of 4 μL of 200 μM test compound solution or control compound solution at the final concentration of 2 μM and carried out at 37° C.
(§4) 4. Aliquots of 50 μL were taken from the reaction solution at 0, 15, 30, 45 and 60 min. The reaction was stopped by the addition of 4 volumes of cold acetonitrile with IS (100 nM alprazolam, 200 nM labetalol, 200 nM caffeine and 2 μM ketoprofen). Samples were centrifuged at 3, 220 g for 40 minutes.
(§5) All calculations were carried out using Microsoft Excel.
(§6) Peak areas were determined from extracted ion chromatograms. The slope value, k, was determined by linear regression of the natural logarithm of the remaining percentage of the parent drug vs. incubation time curve.
(§7) The in vitro half-life (in vitro t1/2) was determined from the slope value:
(§8) Conversion of the in vitro t1/2 (min) into the in vitro intrinsic clearance (in vitro CLint, in μL/min/mg protein) was done using the following equation (mean of duplicate determinations): […]

[2] = Intrinsic clearance in liver microsomes (human); format: in vitro ADME; conditions: Human liver microsomes 0.5 mg/mL, 2 μM compound, 37° C.; for microsomal CLint at 2 μM: read-out: in vitro CLint (μL/min/mg protein); for half-life at 2 μM: read-out: in vitro t1/2
Protocol: as §1, §2, §3, §4, §5, §6, §7, §8

[3] = Caco-2 drug transport assay; conditions: human, Caco-2, pH 7.4
Protocol: 1) 50 μL and 25 mL of cell culture medium were added to each well of the Transwell insert and reservoir, respectively. And then the HTS transwell plates were incubated at 37° C., 5% CO2 for 1 hour before cell seeding.
2) Caco-2 cells were diluted to 6.86×10^5 cells/mL with culture medium and 50 μL of cell suspension were dispensed into the filter well of the 96-well HTS Transwell plate. Cells were cultivated for 14-18 days in a cell culture incubator at 37° C., 5% CO2, 95% relative humidity. Cell culture medium was replaced every other day, beginning no later than 24 hours after initial plating.
10 mM stock solutions of test compounds were prepared in DMSO. The stock solutions of positive controls were prepared in DMSO at the concentration of 10 mM.
1) Medium was removed from the reservoir and each Transwell insert and replaced with prewarmed fresh culture medium.
2) Transepithelial electrical resistance (TEER) across the monolayer was measured using Millicell Epithelial Volt-Ohm measuring system (Millipore, USA).
3) The Plate was returned to the incubator once the measurement was done.
The TEER value was calculated according to the following equation: TEER measurement (ohms)*Area of membrane (cm^2)=TEER value (ohm·cm^2) TEER value should be greater than 230 ohm·cm^2, which indicates the well-qualified Caco-2 monolayer.
1) The Caco-2 plate was removed from the incubator and washed twice with pre-warmed HBSS (10 mM HEPES, pH 7.4), and then incubated at 37° C. for 30 minutes.
2) The stock solutions of control compounds and test compounds were diluted in DMSO to get 1 mM solutions and then diluted with HBSS (10 mM HEPES, pH 7.4) get 5 μM working solutions. The final concentration of DMSO in the incubation system was 0.5%.
3) To determine the rate of drug transport in the apical to basolateral direction. 125 μL of 5 μM working solution of control compound and test compounds were added to the Transwell insert (apical compartment), and transfer 50 μL sample (DO sample) immediately from the apical compartment to a new 96-well plate. Fill the wells in the receiver plate (basolateral compartment) with 235 μL of HBSS (10 mM HEPES, pH 7.4).
4) To determine the rate of drug transport in the basolateral to apical direction. 285 μL of 5 μM working solution of control compound and test compounds were to the receiver plate wells (basolateral compartment), and transfer 50 μL sample (DO sample) immediately from the basolateral compartment to a new 96-well plate. Fill the wells in the Transwell insert (apical compartment) with 75 μL of HBSS (10 mM HEPES, pH 7.4). The assay was performed in duplicate.
5) The plates were incubated at 37° C. for 2 hours.
Samples were Vortexed for 5 minutes and then centrifuged at 3,220 g for 40 minutes. An aliquot of 100 μL of the supernatant was mixed with an appropriate volume of ultra-pure water before LC-MS/MS analysis.
7) To determine the Lucifer Yellow leakage after 2 hour transport period, stock solution of Lucifer yellow was prepared in water and diluted with HBSS (10 mM HEPES, pH 7.4) to reach the final concentration of 100 μM. 100 μL of the Lucifer yellow solution was added to each Transwell insert (apical compartment), followed by filling the wells in the receiver plate (basolateral compartment) with 300 μL of HBSS (10 mM HEPES, pH 7.4). The plates were Incubated at 37° C. for 30 mins. 80 μL samples were removed directly from the apical and basolateral wells (using the basolateral access holes) and transferred to wells of new 96 wells plates. The Lucifer Yellow fluorescence (to monitor monolayer integrity) signal was measured in a fluorescence plate reader at 485 nm excitation and 530 nm emission.
The apparent permeability coefficient (Papp), in units of centimeter per second, can be calculated for Caco-2 drug transport assays using the following equation: […]

Sequence of CK1δ (P48730 whole entry): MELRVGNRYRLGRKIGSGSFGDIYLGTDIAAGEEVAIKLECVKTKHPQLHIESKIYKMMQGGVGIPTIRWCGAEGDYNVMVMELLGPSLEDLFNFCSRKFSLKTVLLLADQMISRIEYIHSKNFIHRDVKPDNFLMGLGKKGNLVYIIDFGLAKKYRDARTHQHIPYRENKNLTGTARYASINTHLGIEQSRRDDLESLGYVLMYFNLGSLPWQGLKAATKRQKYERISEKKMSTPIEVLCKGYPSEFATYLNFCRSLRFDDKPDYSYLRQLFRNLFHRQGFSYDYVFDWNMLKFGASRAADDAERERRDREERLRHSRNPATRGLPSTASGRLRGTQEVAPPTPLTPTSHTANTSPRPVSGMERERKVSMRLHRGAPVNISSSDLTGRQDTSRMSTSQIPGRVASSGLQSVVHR

| Compound | EC50 (CK1δ) [nM] | microsomal CLint at 2 μM [1] [µL/min/mg] | half-life at 2 μM [1] [h] | microsomal CLint at 2 μM [2] [µL/min/mg] | half-life at 2 μM [2] [h] | Papp A→B at 2 h, 5 μM [3] [×10⁻⁶ cm/s] | Papp B→A at 2 h, 5 μM [3] [×10⁻⁶ cm/s] | efflux ratio at 2 h, 5 μM [3] |
| --- | --- | --- | --- | --- | --- | --- | --- | --- |
| Cn1cc(-c2ccnn3cc(C(C)(C)O)nc23)c(-c2ccc(F)cc2)n1 [Compound I-17, 2-(8-(3-(4-fluorophenyl)-1-methyl-1H-pyrazol-4-yl)imidazo[1,2-b]pyridazin-2-yl)propan-2-ol] | 400 | 19.1 | 1.21 | 3.25 | 7.11 | 25.3 | 19.4 | 0.77 |
| CNc1cn2nccc(-c3cn(C)nc3-c3ccc(F)cc3)c2n1 [Compound I-19, 8-(3-(4-fluorophenyl)-1-methyl-1H-pyrazol-4-yl)-N-methyli-midazo[1,2-b]pyridazin-2-amine] | 25000 | – | – | – | – | – | – | – |
| Cn1cc(-c2ccnc3ccnn23)c(-c2ccc(F)cc2)n1 [Compound I-1, 7-(3-(4-fluorophenyl)-1-methyl-1H-pyrazol-4-yl)pyrazolo[1,5-a]pyrimidine] | 15000 | – | – | – | – | – | – | – |
| COC(=O)c1cn2nccc(-c3cn(C)nc3-c3ccc(F)cc3)c2n1 [Compound I-12, methyl 8-(3-(4-fluorophenyl)-1-methyl-1H-pyrazol-4-yl)imidazo[1,2-b]pyridazine-2-carboxylate] | 8600 | – | – | – | – | – | – | – |
| CNCc1cn2nccc(-c3cn(C)nc3-c3ccc(F)cc3)c2n1 [Compound I-22, 1-(8-(3-(4-fluorophenyl)-1-methyl-1H-pyrazol-4-yl)imidazo[1,2-b]pyridazin-2-yl)-N-methylmethanamine] | 300 | 18.9 | 1.22 | 2.64 | 8.76 | 12.7 | 32.1 | 2.52 |
| Cn1cc(-c2ccnn3cnnc23)c(-c2ccc(F)cc2)n1 [Compound I-10, 8-(3-(4-fluorophenyl)-1-methyl-1H-pyrazol-4-yl)-[1,2,4]triazo-lo[4,3-b]pyridazine] | 7900 | – | – | – | – | – | – | – |
| CC(=O)NCc1cn2nccc(-c3cn(C)nc3-c3ccc(F)cc3)c2n1 [Compound I-21, N-((8-(3-(4-fluorophenyl)-1-methyl-1H-pyrazol-4-yl)imidazo [1,2-b]pyridazin-2-yl)methyl)acetamide] | 5300 | – | – | – | – | – | – | – |

More lines, in order of falling EC50 (CK1δ), values ahead:

| EC50 (CK1δ) [nM] | microsomal CLint at 2 μM [1] [µL/min/mg] | half-life at 2 μM [1] [h] | microsomal CLint at 2 μM [2] [µL/min/mg] | half-life at 2 μM [2] [h] | Papp A→B at 2 h, 5 μM [3] [×10⁻⁶ cm/s] | Papp B→A at 2 h, 5 μM [3] [×10⁻⁶ cm/s] | efflux ratio at 2 h, 5 μM [3] | Compound |
| --- | --- | --- | --- | --- | --- | --- | --- | --- |
| 3300 | – | – | – | – | – | – | – | Cn1cc(-c2ccnn3c(N)cnc23)c(-c2ccc(F)cc2)n1 [Compound I-8, 8-(3-(4-fluorophenyl)-1-methyl-1H-pyrazol-4-yl)imidazo[1,2-b]pyridazin-3-amine] |
| 2800 | – | – | – | – | – | – | – | Cn1cc(-c2ccnn3cc(N)nc23)c(-c2ccc(F)cc2)n1 [Compound I-13, 8-(3-(4-fluorophenyl)-1-methyl-1H-pyrazol-4-yl)imidazo[1,2-b]pyridazin-2-amine] |
| 2700 | – | – | – | – | – | – | – | Cc1cn2nccc(-c3cn(C)nc3-c3ccc(F)cc3)c2n1 [Compound I-4, 8-(3-(4-fluorophenyl)-1-methyl-1H-pyrazol-4-yl)-2-methyli-midazo[1,2-b]pyridazine] |
| 2500 | – | – | – | – | – | – | – | Cn1cc(-c2ccnn3cccc23)c(-c2ccc(F)cc2)n1 [Compound I-9, 4-(3-(4-fluorophenyl)-1-methyl-1H-pyrazol-4-yl)pyrrolo[1,2-b]pyridazine] |
| 2500 | – | – | – | – | – | – | – | CC(=O)Nc1cn2nccc(-c3cn(C)nc3-c3ccc(F)cc3)c2n1 [Compound I-20, N-(8-(3-(4-fluorophenyl)-1-methyl-1H-pyrazol-4-yl)imidazo [1,2-b]pyridazin-2-yl)acetamide] |
| 800 | 24.7 | 0.935 | 7.47 | 3.09 | 5.28 | 18.4 | 3.49 | CC(=O)N1CCn2nc(-c3ccc(F)cc3)c(-c3ccnc4[nH]ccc34)c2C1 [Compound I-24, 1-(2-(4-fluorophenyl)-3-(1H-pyrrolo[2,3-b]pyridin-4-yl)-6,7-dihydropyrazolo[1,5-a]pyrazin-5(4H)-yl)ethan-1-one] |
| 700 | 66.8 | 0.346 | 12.5 | 1.85 | 22.4 | 20.8 | 0.93 | CNC(=O)c1cn2nccc(-c3cn(C)nc3-c3ccc(F)cc3)c2n1 [Compound I-16, 8-(3-(4-fluorophenyl)-1-methyl-1H-pyrazol-4-yl)-N-methyli-midazo[1,2-b]pyridazine-2-carboxamide] |
| 500 | 38.8 | 0.595 | – | – | 24.8 | 25.2 | 1.02 | Cn1cc(-c2ccnn3cc(C(N)=O)nc23)c(-c2ccc(F)cc2)n1 [Compound I-15, 8-(3-(4-fluorophenyl)-1-methyl-1H-pyrazol-4-yl)imidazo[1,2-b]pyridazine-2-carboxamide] |
| 200 | 5.9 | 3.92 | 0.93 | 24.9 | 13 | 31.5 | 2.43 | Cn1cc(-c2ccnn3cc(CN)nc23)c(-c2ccc(F)cc2)n1 [Compound I-14] |
